Laboratory results reported in a melting point compilation (Tetko et al.).

| melting point [°C] | SMILES |
| --- | --- |
| 182 to 184 | Sc1nc2cc(Cl)ccc2n1CCOc1ccccc1 |
| 162 to 164 | S=c1[nH]nnn1-c1ccc(Br)cc1 |
| 158 to 160 | COc1ccc(C(=O)CSc2nc(C)n[nH]2)cc1Br |
| 204 to 206 | CC1(c2ccc(F)cc2)NC(=O)NC1=O (centres undefined) |
| 94 to 96 | Cn1ccc(S(=O)(=O)NCC2(N)CCCCC2)c1 |
| 86 to 88 | OC1CCc2c(OCc3ccccc3)cccc21 (centres undefined) |
| 135 to 137 | CC(=CC(=O)O)c1cccc(C(F)(F)F)c1 |
| 70 to 72 | CCCN1C(=O)CNc2ccccc21 |
| 34 to 36 | Cc1cc(C)c2c(c1)NCCC2 |
| 218 to 220 | O=C(O)c1cc([N+](=O)[O-])ccc1Sc1nnnn1-c1ccccc1 |
| 127 to 129 | CCc1ccc(N)c(C(=O)O)c1 |
| 206 to 208 | Cc1ccccc1-n1c(S)nc(O)cc1=O |
| 70 to 72 | Nc1ncc(Cc2ccc(Cl)c(C(F)(F)F)c2)s1 |
| 100 to 102 | Cc1noc(-c2ccc(C)c([N+](=O)[O-])c2)n1 |
| 239 to 241 | CN(C)S(=O)(=O)c1cc(C(=O)O)ccc1Cl |
| 111 to 113 | NCc1ccc(N2CCN(c3ccccc3)CC2)nc1 |
| 106 to 108 | CC(Cl)C(=O)NC(C)c1ccc2c(c1)CCCC2 (centres undefined) |
| 129 to 131 | CC(C)c1c(C(=O)O)cnn1-c1ccccn1 |
| 159 to 161 | O=C(O)c1cc(COc2c(Cl)cccc2Cl)on1 |
| 188 to 190 | Cc1ccc(C)c(Sc2ncccc2C(=O)O)c1 |
| 142 to 144 | CNCC(O)COc1ccc([N+](=O)[O-])cc1 (centres undefined) |
| 55 to 57 | O=S(=O)(Cl)c1c(Cl)cc(F)cc1Br |
| 255 to 257 | O=C(O)c1c[nH]c2ccc([N+](=O)[O-])cc12 |

| melting point [°C] | SMILES |
| --- | --- |
| 159 to 161 | Nc1cccc(-c2n[nH]c3c2CCCC3)c1 |
| 90 to 92 | O=C(O)c1nnn(C2CC2)c1C(F)(F)F |
| 238 to 240 | N#Cc1ccc(-n2cnc(N)n2)cc1 |
| 119 to 121 | O=C(O)c1ccccc1OCc1ccc(Br)cc1 |
| 97 to 99 | COc1ccc(NC(=O)CCCl)c([N+](=O)[O-])c1 |
| 114 to 116 | COC(=O)c1ccc(-c2noc(CC(C)(C)C)n2)cc1 |
| 206 to 208 | Nc1cc(Cl)c(NC(=O)c2ccsc2)c(Cl)c1 |
| 232 to 234 | NNc1ncnc2c1oc1ccccc12 |
| 159 to 161 | CC(C)C(NS(=O)(=O)c1ccccc1F)C(=O)O (centres undefined) |
| 217 to 219 | Nc1ncc(Cc2cccc(C(=O)O)c2)s1 |
| 120 to 122 | O=C(O)C(=O)NCCCc1ccccc1 |
| 191 to 193 | CC(=O)c1cccc(S(=O)(=O)NC(CC(N)=O)C(=O)O)c1 (centres undefined) |
| 54 to 56 | CC(=O)c1ccc(-c2ccccc2Cl)s1 |
| 217 to 219 | CCS(=O)(=O)Nc1nc2ccc(N)cc2s1 |
| 72 to 74 | CCOC(=O)c1cnc2c(C)cc(C)cc2c1Cl |
| 179 to 181 | CC(C)Cn1cnc2c1c(=O)[nH]c(=O)n2Cc1ccccc1 |
| 59 to 61 | Fc1ccc(-c2nc(CCl)co2)cc1F |
| 55 to 57 | Brc1ncc(-c2ccccc2)s1 |
| 149 to 151 | CN(C)c1nc(=N)cc[nH]1 |
| 125 to 127 | COC(=O)C1=NN(c2ccccc2)C(c2ccccc2)C1 (centres undefined) |
| 74 to 76 | COC(=O)c1ccc2c(c1)CCN2 |
| 107 to 109 | Cc1cc(C)c(C)c(S(=O)(=O)N2CCC(C(=O)O)CC2)c1C |
| 142 to 144 | O=C1CCCc2nc(-c3ccc(F)cc3)sc21 |

| melting point [°C] | SMILES |
| --- | --- |
| 102 to 104 | Cc1sc2nc(CN3CCOCC3)nc(Cl)c2c1C |
| 170 to 172 | CN(C(=O)c1ccc(N)cc1)C1CCOCC1 |
| 100 to 102 | CC(C)CNC(=O)c1ccc(N)cc1Cl |
| 92 to 94 | C=CCNC(=O)c1ccccc1N |
| 132 to 134 | O=[N+]([O-])c1c(Cl)ccc2scnc12 |
| 95 to 97 | CC(C)Oc1ccc(S(=O)(=O)Cl)cc1Cl |
| 259 to 261 | CCCc1noc2nc(-c3cccnc3)cc(C(=O)O)c12 |
| 190 to 192 | CS(=O)(=O)Nc1ccc(S(N)(=O)=O)cc1F |
| 98 to 100 | CCNc1nc(NCC)n2c(S)nnc2n1 |
| 177 to 179 | CN(C)C(=O)c1ccc(NC(=O)CCl)cc1 |
| 69 to 71 | CC1Cc2ccc(Br)cc2C1=O (centres undefined) |
| 110 to 112 | Nc1cc(-c2ccc(F)cc2F)no1 |
| 159 to 161 | O=C(O)c1cc(F)cc2cccnc12 |
| 110 to 112 | COc1ccc(Cl)cc1C(F)(F)C(=O)O |
| 149 to 151 | Cc1[nH]c(N)c(C#N)c1C |
| 258 to 260 | NC(=O)c1ccc(-c2nn[nH]n2)cc1 |
| 99 to 101 | COC(=O)CCNC(=O)c1ccc(N)cc1 |
| 285 to 287 | O=S(=O)(c1ccc2[nH]c(S)nc2c1)N1CCOCC1 |
| 81 to 83 | NC(=NO)c1cccs1 |
| 257 to 259 | NC(=O)c1cccnc1Sc1ccc(C(=O)O)cc1 |
| 103 to 105 | O=C1C=CC(=O)N1c1cccc2ccccc12 |
| 249 to 251 | Nc1ncnc(Nc2ccc(F)cc2)n1 |
| 147 to 149 | CC(=O)c1ccc(NC(=O)NC(C)C)cc1 |

| melting point [°C] | SMILES |
| --- | --- |
| 131 to 133 | Cc1nnc(SCCC(=O)O)[nH]1 |
| 40 to 48 | Nc1cc(C(F)(F)F)ccc1-n1cccn1 |
| 258 to 260 | Cc1cc2c(=O)[nH]cnc2s1 |
| 211 to 213 | Cc1cccc(C(N)CC(=O)O)c1C (centres undefined) |
| 51 to 53 | O=C(O)C1CC1c1ccco1 (centres undefined) |
| 68 to 70 | Cc1ccccc1CCNC(=O)CCl |
| 118 to 120 | O=C(CCl)Nc1cc(F)ccc1F |
| 139 to 141 | CCn1nc(C)c(C(=O)O)c1C |
| 96 to 98 | O=C(O)CCCN1C(=O)c2ccccc2C1=O |
| 109 to 111 | Cc1ccc(C(C)C)c(Oc2ccc(C=O)cc2[N+](=O)[O-])c1 |
| 81 to 83 | CC(Cl)C(=O)N1CCSc2ccccc21 (centres undefined) |
| 193 to 195 | N#Cc1ccc(C(=O)NCC(=O)O)cc1 |
| 105 to 107 | O=C(O)C(=O)NCC(F)F |
| 279 to 281 | N#Cc1cc2c([nH]c1=O)CCC(c1ccccc1)C2 (centres undefined) |
| 95 to 98 | Nc1nc2c(s1)CN(Cc1ccccc1)CC2 |
| 347 to 349 | CCn1c(=O)[nH]c2cc(C(=O)O)ccc2c1=O |
| 64 to 66 | Cc1nc(N)oc1C |
| 259 to 261 | Cc1cc(C(F)(F)F)c2c(C)c(C(=O)O)sc2n1 |
| 165 to 167 | CC(C)C(NC(=O)COc1ccccc1)C(=O)O (centres undefined) |
| 138 to 140 | O=C(O)c1cc(C2CC2)nn1-c1ccccc1 |
| 214 to 216 | O=C(O)c1csc(-c2cccc([N+](=O)[O-])c2)n1 |
| 279 to 281 | O=c1[nH]cnc2c1nnn2-c1ccccc1 |
| 109 to 111 | O=C(O)C(F)(F)c1ccc(Cl)c(Cl)c1 |

| SMILES | melting point [°C] |
| --- | --- |
| COC(=O)c1ccc(CBr)s1 | 36 to 38 |
| COc1ccc(OC)c(CBr)c1 | 77 to 79 |
| CCC(CC)n1ccc(C(=O)O)n1 | 68 to 70 |
| NCCc1nc2ccccc2[nH]1 | 215 to 230 |
| CC(=O)c1c(O)cc(C)oc1=O | 109 to 111 |
| O=C1CN(C(=O)CCl)CCN1 | 124 to 126 |
| COc1ccc(C2=CCNCC2)cc1 | 73 to 75 |
